Assay results as given in US7292944B2, “Establishment of biological cut-off values for predicting resistance to therapy” (priority 2000, dated 2007).

Tested on: HIV
Experiment: Antivirogram phenotypic drug susceptibility of untreated patient samples relative to laboratory wild type standard virus
Format: cell-based
Details: for effect of the change in cut-off value on the decision concerning resistance of the samples: new versus old cut-off value (FIG. 4, FIG. 5)
Source text: In one embodiment, the biological cut-off values may be used in concert with direct phenotype assays, for example, Antivirogram™ (Virco, Inc.; WO 97/27480, U.S. Pat. No. 6,221,578 incorporated herein by reference). This assay is a phenotypic resistance assay that measures, in controlled laboratory conditions, the level of resistance of the HIV derived from an individual patient to each of the anti-HIV therapies currently available. The resistant ‘behavior’ of the virus may be the combined result of the effects of many different mutations and the complex interactions between them, including genetic changes that have not even been identified yet. In other words, it is a direct measure of resistance.
The test provides a quantitative measure of viral resistance to all the available drugs. This is expressed in terms of the IC50. This is then compared to the IC50 for fully sensitive, non-mutated ‘wild-type’ virus. The resistance of the sampled virus to each therapy is then expressed in terms of a fold-change in IC50 compared to wild type. The report enables physicians to identify the therapy(s) that are no longer active and helps in the selection of the optimal combination of drugs for the individual patient.
Drug susceptibility of approximately 1000 geographically diverse untreated patient samples was determined for all currently approved antiretrovirals using the Antivirogram™ assay. […] The fold change in sensitivity of the samples to a drug is also termed the fold resistance of the samples to the drug. The 2×SD value for each drug was used as the cut-off between sensitive (within normal susceptibile range) and resistant (above normal susceptible range). […] FIG. 1 represents an example of such an analysis for a single antiviral drug. These varied between 3-4.5 fold for the nucleosides, 6-10 fold for the NNRTIs and 2.5-4 fold for the PIs.

| Structure (SMILES) | effect of the change in cut-off value on the decision concerning resistance of the samples | biological cut-off value (2×SD of fold change in sensitivity / fold resistance) (approximately 1000 untreated patient samples, new cut-off between sensitive and resistant, old cut-off was 4 fold) [fold] |
| --- | --- | --- |
| Cc1cn([C@H]2C=C[C@@H](CO)O2)c(=O)[nH]c1=O [d4T] | doubling of the number of resistant sample |  |
| CC(C)Nc1cccnc1N1CCN(C(=O)c2cc3cc(NS(C)(=O)=O)ccc3[nH]2)CC1 [delavirdine] | did not actually affect the decision of many samples | 10 |
